For the data set, the system named is patients with type 2 diabetes mellitus. Conditions: in vivo.

Text: Hypoglycemia, occurrence of adverse events particularly treatment-emergent adverse events (TEAEs) and serious adverse events (SAEs), injection site reactions and hypersensitivity reactions.
Safety analyses were descriptive, based on the safety population.

As for insulin glargine [HOE901-U300], the “Death on-study during first 6 months” value is 2 (0.5%) n (%) and the Death post-study was 0 n (%).

As for insulin glargine [Lantus], the “Death on-study during first 6 months” value is 2 (0.5%) n (%) and the Death post-study is 0 n (%).

The values are drawn from patent US11191722B2, “Treatment of diabetes mellitus by long-acting formulations of insulins” (SANOFI, priority 2013, dated 2021).
